In assay [1] the test system is CL1-5 cells. As to the kind of experiment: Transwell migration assay, CL1-5 cells pretreated with peptide.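 As to migration index: index equals control cell count divided by treated cell count.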 Particulars: 12 hours; for cell number: control approximately 105. The assay is classed as cell-based, human. On the procedure: CL1-5 cells, an aggressively metastatic cell line derived from a human adenocarcinoma, were cultured in RPMI 1640 media with 10% FBS, 37° C. at 95% […]/5% CO2 until ready for use. Transwell plates (24-well, 8-um pore size; Costar, Cambridge, Mass., USA) were used to conduct the migration assay. The lower chambers of the Transwell plates were filled with 600 μl of basal media containing 10% FBS. The cells (1×10^5) were pretreated with 50 or 100 μM of the indicated test peptide for 30 min, and then suspended in 100 μl of basal media containing 1% BSA and added to the upper chamber, and the cells then were incubated at 37° C. for 12 hr. The cells on the upper surface of the filters were removed using cotton swabs, and the cells that migrated to the lower surface of the filters were washed, fixed, and stained with hematoxylin and counted under the microscope. The percent change in migration was determined by counting the number of cells that migrated to the lower surface of the filters. At least 3 separate microscopic fields were counted per membrane (n=4).
Primary CL1-5 cells originated from human adenocarcinoma lung cancer Transwell plates with 24-wells, 8-μ pore size (Costar, Cambridge, Mass., USA) were used to conduct the migration assay. The lower chambers of the transwell plates were filled with 600 μL of basal media containing 10% FBS. The cells (1-2×10^5) were suspended in 100 μL of basal media containing 1% BSA. The test peptide at desired concentration was added to the upper chamber directly or after preincubation with cancer cells. The plates were then incubated at 37° C. for 12 hours. The cells on the upper surface of the filters were removed using cotton swabs. The cells that migrated to the lower surface of the filters were washed, fixed, and stained with hematoxylin and counted under the microscope. At least five separate microscopic fields are counted per membrane (n=3). The percent change in migration was determined by counting the number of cells that migrated to the lower surface of the filters.
The count means the actual number of cells which migrated to the lower chamber and counted by a light microscope at 40× magnification, presented as the mean number of cells in 10 randomly chosen fields for each treatment.
The “index” was calculated by dividing the number of cells that migrated in the presence of peptides by the number of cells that migrated randomly (control group). […]. This calculation can reflect the extent that the migration of cells was blocked by 30 minute pretreatment with MANS-related peptides.

The subject of assay [2] is PC-9 cells. As to the kind of experiment: Orthotopic lung injection xenograph model, PC-9 cells in nude mice. The assay is classed as in vivo. Particulars: 50 nmoles i.p. once every three days, 25 days. On the procedure: The metastatic activity of cancer cells in vivo after treatment with MANS peptide or BIO-11006 was assessed in the orthotopic lung injection xenograph model. After pretreatment with either PBS, or PBS+MANS, BIO-11006 (SEQ ID NO: 106), or the control RNS peptide at 100 μM for 4 hours, PC-9 cells were injected into the left lobe of the lung of nude mice. Seven days later, these mice were given systemic treatment with either PBS only (Con), RNS (additional control peptide), MANS or BIO-11006 at 50 nmoles per intraperitoneal injection once every three days. At 25 days (6 injections) post-seeding of these tumor cells, mice were sacrificed and the number of metastasized tumor nodules in the contralateral lung and other organs was counted.

Assay [3] has as its system A549. As to the kind of experiment: Transwell migration assay, A549 cells. Type of assay: cell-based, human. The conditions noted are these: A549, 50 μm, 12 hr. On the procedure: The human adenocarcinoma-derived alveolar epithelial cell line A549 (an invasive cell line) was obtained from the American Type Culture Collection (ATCC) and was cultured in RPMI-1640 supplemented with 10% fetal bovine serum and 100 U/ml penicillin/streptomycin, in 75 cm^2 tissue culture flasks. The cells reached confluence by the third day of culture at 37° C. in an atmosphere of 95% air and 5% CO2 and were maintained by serial passage.
The test peptides (MANS, RNS, BIO-11006, BIO-11000, BIO-11002, BIO-91200, and BIO-10901) were dissolved in PBS at a pH of 7.0; slow vortex mixing for about two hours aided solubility.
Transwell plates (24-well, […]; Costar, Cambridge, Mass., USA) were used to conduct the migration assay. The lower chambers of the transwell plates were filled with 600 μl of basal medium containing 10% FBS. The cells (1×10^5) were suspended in 100 μl of basal medium containing 1% BSA and added to the upper chamber, and the plates incubated at 37° C. with 5% CO2 for 12 hr in PBS (control), or the indicated test peptides at 10, 25 or 50 μM. The cells on the upper surface of the filters were removed using cotton swabs. The cells that migrated to the lower surface of the filters were washed, fixed, and stained with hematoxylin and counted under the microscope. The percent change in migration is determined by counting the number of cells that migrated to the lower surface of the filters. At least four separate microscopic fields are counted per membrane, with a total of three replicate experiments at each concentration. The statistics software “Prizm” was used for data analysis.

Assay [4] relates to A549 cells. As to the kind of experiment: Anti-metastatic efficacy in SCID mice given A549 cells via the tail vein. The assay is classed as in vivo. Particulars: Day 53; for No. of metastatic nodules in lungs Mean ± SEM: aerosol 100 μM every other day for 7 weeks. On the procedure:
Female NOD.CB17-Prkdc^scid/NCrHsd, Mus musculus mice (Harlan, The Netherlands), housed in individually ventilated cages, were randomized into six groups of eight mice each. A549 cells (2.5×10^6) were injected into the mice via the tail vein. The control group received aerosolized vehicle PBS; while the groups 2 and 3 received the aerosolized test compound BIO-11006 either from −1 day before the cancer cells injection (group 2) or from +3 days after the cancer cell injection (group 3) on every other day for 7 weeks via nebulizer (Aeroneb Lab). Groups 4 and 5 received the aerosolized test compound MANS peptide either from −1 day before the cancer cell line injection (group 4) or from +3 days after the cell line injection (group 5) on every other day for 7 weeks via a nebulizer (Aeroneb Lab). For aerosol delivery, solution of each test compound (100 μM) was prepared in PBS, pH 7.0. For each treatment, 5 mL of test compound solution was aerosolized over 30 minutes into a chamber containing four mice at a time. The mice were monitored for body weight every other day for 7 weeks.
One group of mice (n=7) served as normal control. These were untreated naïve mice used to monitor the health status of mice during the study period. All animals from all groups were sacrificed on Day 53. FIG. 15 compares number of metastatic nodules in lungs after respective administration of BIO-11006 and MANS peptide on Day 53 following A549 cell injection. […] There were few focal tumor nodules in ⅞ of mice treated with BIO-11006 peptide starting at either Day −1 or Day +3 relative to A549 cell injection.

Where no end group is shown, it is not given here. The star is where a group is joined. Myristoyl = CCCCCCCCCCCCCC(=O)*

For “N-myristoyl-GAQFSKTAAKGEAAAERPGEAAVA (Myristoyl-GAQFSKTAAKGEAAAERPGEAAVA; listed as Homo sapiens) [MANS peptide]”, the cell number result was “approximately 45” in assay [1] (CL1-5, 50 μmolar pretreatment, FIG. 9) and “approximately 35” in assay [1] (CL1-5, 100 μmolar pretreatment, FIG. 10). In addition, the migration index result in assay [1] (CL1-5, 50 μmolar pretreatment, FIG. 9, control=1.0) was “approximately 2.5”; in assay [1] (CL1-5, 50 μmolar, FIG. 8A, control=1, higher value signifies less migration) it was “approximately 2.5”; in assay [1] (CL1-5, 100 μmolar pretreatment, FIG. 10, control=1.0) it was “approximately 3.5”; in assay [1] (CL1-5, 100 μmolar, FIG. 8B, control=1, higher value signifies less migration), “approximately 4.3”. The migrated cell numbers entry in assay [1] (CL1-5, pretreatment at 50 μmolar, FIG. 7A) is given as “approximately 40”; in assay [1] (CL1-5, pretreatment at 100 μmolar, FIG. 7B), “approximately 20”. Besides, in assay [2], the “Metastases (affected mice/total mice) Diaphragm” value was 0/4. Further, the “Metastases (affected mice/total mice) Heart” value in assay [2] is on record as 0/4. For the same substance, the “Metastases (affected mice/total mice) Intestines” value in assay [2] was 0/4. Also, the “Metastases (affected mice/total mice) Spleen” value in assay [2] was 0/4. Besides, the “No. of Metastatic Lung Tumors Mean ± SE (L't)” value in assay [2] (left lung) is on record as 0; 0. Moreover, the “No. of Metastatic Lung Tumors Mean ± SE (R't)” value in assay [2] (right lung) is recorded as 0; 0. Besides, the “Tumor Size (mm) Mean ± SE” value in assay [2] (tumor at site of injection, cells pretreated 100 μM 4 hours) is given as 1.48 ± 0.54 mm. For the same substance, the “migration index numbers relative to control and to RNS peptide” value in assay [3] is recorded as “increased migration index numbers”. Further, the “migrated cell numbers relative to control and to RNS peptide” value in assay [3] (FIG. 11) is “decreased migrated cell numbers”. Further, the entries for the “animals with few focal tumor nodules” value in assay [4] (+3 Day treatment group) and in assay [4] (−1 Day treatment group) were “Few focal tumor nodules in 7/8” and “Few focal tumor nodules in 4/8”, respectively. Also, the distant metastasis result in assay [4] (+3 Day treatment group) and in assay [4] (−1 Day treatment group) was “No distant metastasis” throughout. Moreover, the “No. of metastatic nodules in lungs Mean ± SEM” value in assay [4] (+3 Day treatment group) was found to be 13 ± 4; in assay [4] (−1 Day treatment group), 22 ± 7.

The values are drawn from US11466054B2, “Inhibitors of metastasis” (BIOMARCK PHARMACEUTICALS LTD., priority 2013, dated 2022).
